Assay results taken from PMC8311653, “Design, Synthesis, In Vitro and In Vivo Characterization of Selective NKCC1 Inhibitors for the Treatment of Core Symptoms in Down Syndrome” (Journal of Medicinal Chemistry, 2021).

Tests used:
Ts65Dn mice = test: Open field test (locomotor activity); type: in vivo, mouse; conditions: ip 0.6 mg kg-1 daily
Procedure: All animal procedures were approved by IIT licensing in compliance with the Italian Ministry of Health (D.Lgs 26/2014) and EU guidelines (Directive 2010/63/EU). A veterinarian was employed to maintain the health and comfort of the animals. Mice were housed in filtered cages in a temperature-controlled room with a 12:12 h dark/light cycle and with ad libitum access to water and food. All efforts were made to minimize animal suffering and use the lowest possible number of animals required to produce statistical relevant results, according to the “3Rs concept”. In this study, we used Ts65Dn mice maintained in their original genetic background[57] by crossing (more than 40 times) Ts65Dn female to C57BL/6JEi × C3SnHeSnJ (B6EiC3) F1 males (Jackson Laboratories). Ts65Dn mice were genotyped by PCR as previously described.[58] Only males were used for behavioral experiments. […]
Ts65Dn male mice (8–16 weeks old) were tested after 1 week of treatment with vehicle or 40 (0.6 mg kg^–1 i.p.). […] The tasks were video-recorded and then analyzed manually by a blind operator. […] The alternation score was calculated as the percentage of correct choices (i.e., left–right or right–left) over the total number of the 10 possible alternations. […]

[1] = General health and body weight during chronic treatment; type: in vivo, mouse; conditions: 3 weeks of daily treatment, ip 0.6 mg kg-1; WT and Ts65Dn mice
Procedure: A veterinarian was employed to maintain the health and comfort of the animals. Mice were housed in filtered cages in a temperature-controlled room with a 12:12 h dark/light cycle and with ad libitum access to water and food. All efforts were made to minimize animal suffering and use the lowest possible number of animals required to produce statistical relevant results, according to the “3Rs concept”. In this study, we used Ts65Dn mice maintained in their original genetic background[57] by crossing (more than 40 times) Ts65Dn female to C57BL/6JEi × C3SnHeSnJ (B6EiC3) F1 males (Jackson Laboratories). Ts65Dn mice were genotyped by PCR as previously described.[58] Only males were used for behavioral experiments. Ts65Dn and controls were randomly assigned to vehicle groups (2% DMSO in saline), bumetanide (Sigma, 0.6 mg kg^–1 body weight), or 40 (0.6 mg kg^–1 body weight) and treated daily for ∼21 days by intraperitoneal injection (i.p.). On the day of behavioral testing, injection was performed 1 h before the task began.

Q: With CN(C)S(=O)(=O)c1cc(C(=O)O)c(O)cc1NCCCCCCCC(F)(F)F [Compound 40, 5-(N,N-Dimethylsulfamoyl)-2-hydroxy-4-((8,8,8-trifluorooctyl)amino)benzoic Acid] as the molecule, how does the “hyperactivity in open field (distance traveled and average walking speed)” value (Ts65Dn mice) read?
A: The value was “rescued also the hyperactivity”.

Q: What about the animal body weight [1] of the same molecule?
A: Its animal body weight is “did not affect the animal body weight measures”.

Q: What about the “general health (daily hands-on examination)” value [1] of the same molecule?
A: Its value is “did not affect the general health”.
